Reference: PubChem BioAssay AID200 (DTP/NCI, 2004)
“And” between values parts separate entries of the source, which are not always exact repeats. Equal values may be shown once. Toxic doses and inconclusive results are not listed.

Test system: B6C3F1 mice, B16 melanoma ip, median survival T/C
Test: NCI In Vivo Anticancer Drug Screen. Data for tumor model B16 Melanoma (intraperitoneal) in B6C3F1 mice
Conditions: endpoint: median survival time, higher = longer survival
Procedure, shortened: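 Antitumor effect was judged in mice with transplanted tumors by dividing the treated group's survival measure by that of vehicle controls.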

[1] = dose: 6.25 mg/kg/injection, schedule: Q01DX009 (ip), vehicle: saline with Tween-80
[2] = dose: 12.5 mg/kg/injection, schedule: Q01DX009 (ip), vehicle: saline with Tween-80
[3] = dose: 12.5 mg/kg/injection, schedule: Q01DX009 (ip), vehicle: saline
[4] = dose: 25.0 mg/kg/injection, schedule: Q01DX009 (ip), vehicle: saline
[5] = dose: 50.0 mg/kg/injection, schedule: Q01DX009 (ip), vehicle: saline
[6] = dose: 25.0 mg/kg/injection, schedule: Q01DX009 (ip), vehicle: saline with Tween-80
[7] = dose: 50.0 mg/kg/injection, schedule: Q01DX009 (ip), vehicle: saline with Tween-80
[8] = dose: 100.0 mg/kg/injection, schedule: Q01DX009 (ip), vehicle: saline with Tween-80
[9] = dose: 200.0 mg/kg/injection, schedule: Q01DX009 (ip), vehicle: saline with Tween-80
[10] = dose: 3.12 mg/kg/injection, schedule: Q01DX009 (ip), vehicle: Klucel (hydroxypropylcellulose) (HPC)
[11] = dose: 6.25 mg/kg/injection, schedule: Q01DX009 (ip), vehicle: Klucel (hydroxypropylcellulose) (HPC)
[12] = dose: 12.5 mg/kg/injection, schedule: Q01DX009 (ip), vehicle: Klucel (hydroxypropylcellulose) (HPC)
[13] = dose: 25.0 mg/kg/injection, schedule: Q01DX009 (ip), vehicle: Klucel (hydroxypropylcellulose) (HPC)
[14] = dose: 100.0 mg/kg/injection, schedule: Q01DX009 (ip), vehicle: saline
[15] = dose: 200.0 mg/kg/injection, schedule: Q01DX009 (ip), vehicle: saline
[16] = dose: 1.56 mg/kg/injection, schedule: Q01DX009 (ip), vehicle: Klucel (hydroxypropylcellulose) (HPC)
[17] = dose: 200.0 mg/kg/injection, schedule: Q01DX009 (ip), vehicle: Klucel (hydroxypropylcellulose) (HPC)

With `O=C(O)CCCc1ccc(N(CCCl)CCCl)cc1` the T/C (dose: 1.56 mg/kg/injection, schedule: Q01DX009 (ip), vehicle: saline with Tween-80) was 113 % of control and 106 % of control, the T/C (dose: 3.13 mg/kg/injection, schedule: Q01DX009 (ip), vehicle: saline with Tween-80) was 119 % of control and 103 % of control and the T/C [1] was 118 % of control. The T/C [2] was 98 % of control and 106 % of control.
For `O=C1c2ccccc2C(=O)N1CC#CCN1C(=O)c2ccccc2C1=O`, the T/C (dose: 75.0 mg/kg/injection, schedule: Q01DX009 (ip), vehicle: saline with Tween-80) was 108 % of control, the T/C (dose: 150.0 mg/kg/injection, schedule: Q01DX009 (ip), vehicle: saline with Tween-80) was 93 % of control and the T/C (dose: 300.0 mg/kg/injection, schedule: Q01DX009 (ip), vehicle: saline with Tween-80) was 90 % of control.
With `CC(Br)C(=O)NC(Cc1ccccc1)C(=O)O` (stereo unspecified) the T/C [3] was 104 % of control, the T/C [4] was 95 % of control and the T/C [5] was 102 % of control.
`ClC(Cl)(Cl)C1=NCc2nnn(Cc3ccccc3)c2N1` was tested, and the T/C (dose: 12.5 mg/kg/injection, schedule: Q01DX009 (ip), vehicle: distilled water + Tween-80) was 101 % of control, the T/C [2] was 105 % of control and the T/C (dose: 25.0 mg/kg/injection, schedule: Q01DX009 (ip), vehicle: distilled water + Tween-80) was 96 % of control. The T/C [6] was 110 % of control, the T/C (dose: 50.0 mg/kg/injection, schedule: Q01DX009 (ip), vehicle: distilled water + Tween-80) was 93 % of control and the T/C [7] was 108 % of control. The T/C (dose: 100.0 mg/kg/injection, schedule: Q01DX009 (ip), vehicle: distilled water + Tween-80) was 91 % of control, the T/C [8] was 105 % of control and the T/C (dose: 200.0 mg/kg/injection, schedule: Q01DX009 (ip), vehicle: distilled water + Tween-80) was 101 % of control. The T/C [9] was 95 % of control, the T/C (dose: 400.0 mg/kg/injection, schedule: Q01DX009 (ip), vehicle: distilled water + Tween-80) was 101 % of control and the T/C (dose: 400.0 mg/kg/injection, schedule: Q01DX009 (ip), vehicle: saline with Tween-80) was 95 % of control.
`OC(CN1CCCC2CCCCC21)c1cc2ccccc2c2ccccc12` (stereo unspecified) was tested, and the T/C [6] was 100 % of control, the T/C [7] was 100 % of control and the T/C [8] was 96 % of control and 97 % of control.
`C=C1C(=O)OC2/C=C(\C)CC/C=C(/C)CC(OC(=O)/C(=C/CO)CO)C12` (stereo unspecified) was tested, and the T/C (dose: 10.0 mg/kg/injection, schedule: Q01DX009 (ip), vehicle: Klucel (hydroxypropylcellulose) (HPC)) was 106 % of control, the T/C (dose: 20.0 mg/kg/injection, schedule: Q01DX009 (ip), vehicle: Klucel (hydroxypropylcellulose) (HPC)) was 98 % of control and the T/C (dose: 40.0 mg/kg/injection, schedule: Q01DX009 (ip), vehicle: Klucel (hydroxypropylcellulose) (HPC)) was 96 % of control.
In the case of `COc1cccc(/C=C/[N+](=O)[O-])c1OC`, the T/C [10] is reported as 100 % of control, the T/C [11] is reported as 98 % of control and the T/C [12] is reported as 94 % of control. For the same compound, the T/C [13] was 96 % of control.
With `OCC12COCN1COC2` the T/C [3] was 98 % of control, the T/C [4] was 113 % of control and the T/C [5] was 113 % of control and 101 % of control. For the same compound, the T/C [14] was 110 % of control and 100 % of control, the T/C [15] was 108 % of control and 110 % of control and the T/C (dose: 400.0 mg/kg/injection, schedule: Q01DX009 (ip), vehicle: saline) was 121 % of control and 105 % of control.
For `CC(=O)C(=O)O.CC(=O)C(=O)O.[NH-]C1CCCCC1[NH-].[Pt+2]` (stereo unspecified), the T/C (dose: 3.12 mg/kg/injection, schedule: Q01DX009 (ip), vehicle: other) was 122 % of control.
With `O=C1C=CC(=Nc2ccc3c(c2)C(Br)c2ccccc2-3)O1` (stereo unspecified) the T/C (dose: 5.0 mg/kg/injection, schedule: Q01DX009 (ip), vehicle: saline) was 92 % of control and the T/C (dose: 10.0 mg/kg/injection, schedule: Q01DX009 (ip), vehicle: saline) was 87 % of control.
For `COC1=C(OC)C(=O)C(SC/C=C(\C)CCCC(C)CCCC(C)CCCC(C)C)=CC1=O` (stereo unspecified), the T/C [1] was 100 % of control, the T/C [2] was 109 % of control and 94 % of control and the T/C [6] was 101 % of control and 103 % of control. The T/C [7] was 121 % of control and 106 % of control, the T/C [8] was 117 % of control and the T/C [9] was 116 % of control.
For `N#C[Se-].c1ccc([Te+](c2ccccc2)c2ccccc2)cc1`, the T/C [16] was 92 % of control, the T/C [10] was 97 % of control and the T/C [11] was 96 % of control. The T/C [12] was 96 % of control.
For `Cc1cc2nc3[nH]c4ccccc4c3nc2cc1C`, the T/C (dose: 12.5 mg/kg/injection, schedule: Q01DX008 (ip), vehicle: saline) was 91 % of control, the T/C (dose: 25.0 mg/kg/injection, schedule: Q01DX008 (ip), vehicle: saline) was 90 % of control and the T/C (dose: 50.0 mg/kg/injection, schedule: Q01DX008 (ip), vehicle: saline) was 101 % of control. The T/C (dose: 100.0 mg/kg/injection, schedule: Q01DX008 (ip), vehicle: saline) was 91 % of control, the T/C (dose: 200.0 mg/kg/injection, schedule: Q01DX008 (ip), vehicle: saline) was 86 % of control and the T/C (dose: 400.0 mg/kg/injection, schedule: Q01DX008 (ip), vehicle: saline) was 88 % of control.
For `CCOc1ccccc1C(=O)Nc1ccc(Br)cc1`, the T/C (dose: 50.0 mg/kg/injection, schedule: Q01DX009 (ip), vehicle: Klucel (hydroxypropylcellulose) (HPC)) was 117 % of control and the T/C [17] was 117 % of control.
For `COc1ccc2c(c1OC(C)=O)-c1cc(O)cc3c1C(C2)N(C(=O)CN(CCCl)CCCl)CC3` (stereo unspecified), the T/C (dose: 3.12 mg/kg/injection, schedule: Q01DX009 (ip), vehicle: saline with Tween-80) was 164 % of control, the T/C [1] was 153 % of control and the T/C [2] was 207 % of control.
For `CC(C)N1C(=O)N(Cl)C2C1N(Cl)C(=O)N2Cl` (stereo unspecified), the T/C (dose: 1.5 mg/kg/injection, schedule: Q01DX009 (ip), vehicle: saline with Tween-80) was 108 % of control, the T/C (dose: 3.0 mg/kg/injection, schedule: Q01DX009 (ip), vehicle: saline with Tween-80) was 104 % of control and the T/C (dose: 6.0 mg/kg/injection, schedule: Q01DX009 (ip), vehicle: saline with Tween-80) was 98 % of control. The T/C (dose: 12.0 mg/kg/injection, schedule: Q01DX009 (ip), vehicle: saline with Tween-80) was 94 % of control and the T/C (dose: 24.0 mg/kg/injection, schedule: Q01DX009 (ip), vehicle: saline with Tween-80) was 108 % of control.
With `NCCSC(C[N+](=O)[O-])c1ccccc1Cl` (stereo unspecified) the T/C (dose: 6.25 mg/kg/injection, schedule: Q01DX009 (ip), vehicle: saline) was 103 % of control, the T/C [3] was 114 % of control and the T/C [4] was 93 % of control.
In the case of `OC(CCl)CN1CC[N+]2(CC1)CC[N+]1(CCN(CC(O)CCl)CC1)CC2` (stereo unspecified), the T/C (dose: 4.68 mg/kg/injection, schedule: Q01DX009 (ip), vehicle: saline) is reported as 118 % of control, the T/C (dose: 9.37 mg/kg/injection, schedule: Q01DX009 (ip), vehicle: saline) is reported as 106 % of control and the T/C [3] is reported as 172 % of control. For the same compound, the T/C (dose: 18.75 mg/kg/injection, schedule: Q01DX009 (ip), vehicle: saline) was 98 % of control, the T/C [4] was 183 % of control and the T/C (dose: 37.5 mg/kg/injection, schedule: Q01DX009 (ip), vehicle: saline) was 106 % of control.
`c1nc(N2CC2)c2cnn(C3CCCCO3)c2n1` (stereo unspecified) was tested, and the T/C [7] was 91 % of control, the T/C [8] was 93 % of control and the T/C [9] was 91 % of control.
`CCOC(=O)Nc1cc2c(c(N)n1)N=C(CN(C)c1ccccc1)CN2` was tested, and the T/C (dose: 0.78 mg/kg/injection, schedule: Q01DX009 (ip), vehicle: Klucel (hydroxypropylcellulose) (HPC)) was 93 % of control, the T/C [16] was 116 % of control and the T/C [10] was 114 % of control. For the same compound, the T/C [11] was 117 % of control.
In the case of `NC=NCC(=O)O`, the T/C [5] is reported as 108 % of control, the T/C [14] is reported as 105 % of control and the T/C [15] is reported as 97 % of control.
For `Nc1nc(Cc2ccccc2)c(CCCNc2ccccc2)c(=O)[nH]1`, the T/C [1] was 101 % of control, the T/C [2] was 109 % of control and the T/C [6] was 92 % of control. The T/C [7] was 86 % of control.
In the case of `CCC(C)C(NC(=O)OC(C)(C)C)C(=O)O` (stereo unspecified), the T/C (dose: 100.0 mg/kg/injection, schedule: Q01DX009 (ip), vehicle: Klucel (hydroxypropylcellulose) (HPC)) is reported as 99 % of control, the T/C [17] is reported as 92 % of control and the T/C (dose: 400.0 mg/kg/injection, schedule: Q01DX009 (ip), vehicle: Klucel (hydroxypropylcellulose) (HPC)) is reported as 87 % of control.
In the case of `Nc1ncnc2c1nnn2C1OC(CO)C(O)C1O` (stereo unspecified), the T/C (dose: 6.0 mg/kg/injection, schedule: Q01DX009 (ip), vehicle: Klucel (hydroxypropylcellulose) (HPC)) is reported as 113 % of control, the T/C (dose: 12.0 mg/kg/injection, schedule: Q01DX009 (ip), vehicle: Klucel (hydroxypropylcellulose) (HPC)) is reported as 115 % of control and the T/C [13] is reported as 176 % of control.
